Reference: ChEMBL document CHEMBL4417636, “Small molecule inhibitors of pendrin ion exchange and pharmaceutical compositions” (2017)
Active and inactive are the calls of the source. The calls are words filed in the database; no cut-off is given here.

What was measured:
Mus musculus = experiment: Potentiation of 20 mg/kg, ip furosemide-induced acute diuretic action in CD1 mouse assessed as increase in urinary Na+ excretion at 10 mg/kg, ip measured at 3 hrs relative to control; assay type: functional, organism-based
Pendrin (Mus musculus) = target: T1, Pendrin (Mus musculus) (UniProt Q9R155); experiment: Inhibition of mouse pendrin expressed in FRT cells co-expressing YFP-HIF assessed as reduction in pendrin-mediated exchange of Cl(-) with NO3(-) by pH-sensitive fluorescent probe BCECF-AM based fluorescence assay relative to control; assay type: cell-based
T1 sequence (whole entry): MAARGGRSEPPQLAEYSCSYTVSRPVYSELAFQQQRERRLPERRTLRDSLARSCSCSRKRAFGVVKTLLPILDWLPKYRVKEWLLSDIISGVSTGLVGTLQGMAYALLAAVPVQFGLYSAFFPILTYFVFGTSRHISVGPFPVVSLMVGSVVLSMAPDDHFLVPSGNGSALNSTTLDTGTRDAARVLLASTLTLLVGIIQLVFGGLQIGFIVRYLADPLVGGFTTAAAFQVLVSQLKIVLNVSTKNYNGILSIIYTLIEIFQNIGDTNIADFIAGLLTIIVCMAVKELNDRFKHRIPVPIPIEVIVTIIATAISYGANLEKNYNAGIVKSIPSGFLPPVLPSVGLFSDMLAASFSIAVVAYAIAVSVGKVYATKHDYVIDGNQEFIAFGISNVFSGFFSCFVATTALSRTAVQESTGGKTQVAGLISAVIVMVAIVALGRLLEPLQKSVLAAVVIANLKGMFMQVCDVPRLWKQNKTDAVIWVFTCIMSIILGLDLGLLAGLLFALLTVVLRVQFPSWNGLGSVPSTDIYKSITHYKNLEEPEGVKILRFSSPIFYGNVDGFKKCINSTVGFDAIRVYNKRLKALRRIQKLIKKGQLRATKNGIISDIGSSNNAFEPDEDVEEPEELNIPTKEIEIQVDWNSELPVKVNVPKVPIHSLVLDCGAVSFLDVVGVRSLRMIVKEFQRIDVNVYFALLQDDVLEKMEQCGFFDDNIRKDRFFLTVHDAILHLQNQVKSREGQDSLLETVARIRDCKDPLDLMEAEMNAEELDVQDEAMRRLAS

[1] = target: T2, Chloride anion exchanger (Mus musculus) (UniProt Q9WVC8); experiment: Inhibition of myc-tagged mouse Slc26a3 expressed in COS7 co-expressing EYFP-HIF assessed as effect on SCN(-) gradient at 25 uM by YFP-based fluorescence quenching assay
T2 sequence (whole entry): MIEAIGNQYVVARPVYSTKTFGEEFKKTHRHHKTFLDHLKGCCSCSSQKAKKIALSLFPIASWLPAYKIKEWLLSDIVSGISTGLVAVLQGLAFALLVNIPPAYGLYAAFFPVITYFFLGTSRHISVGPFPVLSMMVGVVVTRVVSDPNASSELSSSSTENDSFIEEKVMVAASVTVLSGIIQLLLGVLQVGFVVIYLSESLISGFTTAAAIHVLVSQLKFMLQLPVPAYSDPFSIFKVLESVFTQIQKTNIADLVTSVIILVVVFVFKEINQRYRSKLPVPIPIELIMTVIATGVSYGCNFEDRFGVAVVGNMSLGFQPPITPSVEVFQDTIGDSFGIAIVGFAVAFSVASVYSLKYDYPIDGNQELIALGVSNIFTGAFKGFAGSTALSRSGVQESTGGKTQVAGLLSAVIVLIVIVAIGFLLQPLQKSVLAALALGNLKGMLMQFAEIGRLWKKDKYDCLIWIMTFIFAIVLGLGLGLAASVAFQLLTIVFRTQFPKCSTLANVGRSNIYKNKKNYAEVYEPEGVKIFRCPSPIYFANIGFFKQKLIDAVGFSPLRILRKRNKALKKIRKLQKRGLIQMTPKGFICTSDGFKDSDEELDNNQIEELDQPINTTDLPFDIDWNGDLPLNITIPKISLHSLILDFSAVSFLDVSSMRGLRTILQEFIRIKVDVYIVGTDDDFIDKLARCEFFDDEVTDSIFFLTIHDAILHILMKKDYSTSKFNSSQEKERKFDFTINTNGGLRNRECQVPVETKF

Homo sapiens = species on record: Homo sapiens; experiment: Inhibition of CaCC in human bronchial epithelial cells assessed as effect on short-circuit current at 25 uM pre-incubated for 30 mins
[2] = target: T3, Chloride anion exchanger (Homo sapiens) (UniProt P40879); experiment: Inhibition of human SLC26A3 expressed in COS7 co-expressing EYFP-HIF assessed as reduction in SCN gradient
T3 sequence (whole entry): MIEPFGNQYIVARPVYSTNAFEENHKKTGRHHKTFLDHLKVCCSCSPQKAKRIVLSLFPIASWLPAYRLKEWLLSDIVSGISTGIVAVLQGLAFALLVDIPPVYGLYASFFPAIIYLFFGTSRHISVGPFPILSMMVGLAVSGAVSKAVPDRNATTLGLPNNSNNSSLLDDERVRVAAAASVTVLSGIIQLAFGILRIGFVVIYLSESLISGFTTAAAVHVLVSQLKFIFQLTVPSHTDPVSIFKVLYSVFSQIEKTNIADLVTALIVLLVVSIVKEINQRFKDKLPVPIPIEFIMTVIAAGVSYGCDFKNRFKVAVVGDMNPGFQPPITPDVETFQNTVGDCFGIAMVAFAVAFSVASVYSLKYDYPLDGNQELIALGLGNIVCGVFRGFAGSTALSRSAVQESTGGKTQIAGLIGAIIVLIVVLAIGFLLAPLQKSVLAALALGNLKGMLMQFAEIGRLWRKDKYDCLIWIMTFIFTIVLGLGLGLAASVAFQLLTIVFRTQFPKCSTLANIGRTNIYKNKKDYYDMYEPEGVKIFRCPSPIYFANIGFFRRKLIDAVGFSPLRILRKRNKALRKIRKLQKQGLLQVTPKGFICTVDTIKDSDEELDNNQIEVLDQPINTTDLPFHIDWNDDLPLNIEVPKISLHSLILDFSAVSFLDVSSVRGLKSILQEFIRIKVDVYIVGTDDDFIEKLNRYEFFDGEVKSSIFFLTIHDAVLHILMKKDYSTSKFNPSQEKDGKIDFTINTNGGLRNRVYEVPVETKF

Row | inhibition (Pendrin (Mus musculus)) | inhibition [1] | inhibition (Homo sapiens) | inhibition [2] | Structure (SMILES) | Activity (Mus musculus)
1 | Dose-dependent effect | inactive | – | – | Cc1n[nH]c(-c2cc(S(=O)(=O)NC3CCCc4ccccc43)c(C)s2)c1C (stereo not given) | Active
2 | – | – | inactive | inactive | Cn1nc(COc2cccc(F)c2)c2c1CCN(C(=O)Nc1ccc(Cl)cc1)C2 | –
